Measured values published in article PMC5345905 (Journal of the American Chemical Society, 2017).

Test system: Bacillus subtilis 168
Assay: minimal inhibitory concentration
Format: cell-based
Details: purified unique compounds, quantitative MIC

Substance: thiocillin [WT]
- MIC: 0.5 µg/mL
